Data set [1] can be described thus: Particle size and polydispersity index (PDI) of lipid nanoparticles by dynamic light scattering. In kind it is physicochemical. The settings on record: LNP formulation prepared from the cationic lipid, 25° C. On the procedure: The particle size and polydispersity index (PDI) were determined by dynamic light scattering using Malvern laser particle size analyzer.
10 μL of the liposome solution was weighed, diluted to 1 mL with RNase-free deionized water, and added to the sample pool. Each sample was measured in triplicate. The measurement conditions were: […] scattering angle, and 25° C.

Data set [2] concerns 293T cells. The data set can be described thus: Fluorescent detection of Fluc-mRNA (cell transfection efficiency of LNP formulations). It is filed as cell-based. The settings on record: for Relative light unit (RLU): LNP formulation of Fluc-mRNA, 96-well plate, 24 hours; for Multiples (YK-305): RLU of YK-305 / RLU of the lipid of the line; for Multiples (YK-310): RLU of YK-310 / RLU of the lipid of the line; for Multiples (YK-312): RLU of YK-312 / RLU of the lipid of the line; for Ratio relative to SM-102: RLU of the lipid / RLU of SM-102, times that of SM-102; for Multiples (YK-318): RLU of YK-318 / RLU of the lipid of the line; for Multiples (YK-318) / Multiples (YK-319): Tables 5, 7, 11; for Multiples (YK-319): RLU of YK-319 / RLU of the lipid of the line. On the procedure: (§1) Cell recovery and passage: 293T cells were recovered, cultured in a culture dish, and passaged to the required number of cells.
(§2) Seeding plate: The cells in the culture dish were digested and counted. Cells were spread in a 96-well plate at 10,000 cells per well and in a 12-well plate at 150,000 cells per well. Cells were cultured overnight until the cells adhered to the wall.
(§3) Cell recovery and passage: the method was the same as in Example 3.
(§4) Seeding plate: the method was the same as in Example 3.
An LNP formulation containing […] of Fluc-mRNA (the carrier components of the LNP formulation were cationic lipid, neutral lipid, structured lipid and polymer-conjugated lipid with a molar ratio of 49:10:39.5:1.5, wherein the cationic lipid was listed in Table 1) was added to the cell culture medium of a 96-well plate, and further incubated for 24 hours. The corresponding reagent was added according to the instructions of the […] Luciferase Assay Kit, and the fluorescence expression intensity of each well was detected by an IVIS fluorescence detection system. This test verified the transfection efficiencies of LNP formulations in cells, see Tables 4-7 for specific test results.

Data set [3] deals with 293T cells. The experiment in a line: Cell survival rate determination (CCK-8). In kind it is cell-based. The settings on record: LNP formulation of Fluc-mRNA, 24 hours, CCK-8. On the procedure:
as §1, §2, §3, §4
An LNP formulation containing […] of Fluc-mRNA (the carrier components of the LNP formulation were cationic lipid, neutral lipid, structured lipid and polymer-conjugated lipid with a molar ratio of 49:10:39.5:1.5, wherein the cationic lipid was listed in Table 1) and the formulation of Lipofectamine 3000 were added to the cell culture medium of a 96-well plate, and further cultivated for 24 hours. 10 μL of CCK-8 solution was then added to each well, and the culture plate was incubated in an incubator for 1 hour. The absorbance at 450 nm was measured by a microplate reader.
Cell survival rate can represent the toxicity of cationic lipids to cells. The higher the cell survival rate, the lower the toxicity to cells.

We go through 11 compounds from patent US20260007613A1, “LONG-ACTING LOW-TOXICITY NOVEL CATIONIC LIPID COMPOUNDS AND COMPOSITION THEREOF” (BEIJING YOUCAREKECHUANG PHARMACEUTICAL TECHNOLOGY CO., LTD., priority 2023, published 2026).

In the case of `CCCCCCCCCCOC(=O)CCCN(CCCCCC(=O)OCC(CCCCCCCC)CCCCCCCC)C[C@H](O)CN(CC)CCO` [YK-308], in data set [1], the “PDI (%)” value amounted to 13.4% and the “Particle size (nm)” value turned out to be 211 nm. Besides, in data set [2], the “Relative light unit (RLU)” value turned out to be 5036582 RLU, the “Multiples (YK-305)” value worked out at 5.44, the “Multiples (YK-310)” value is 5.12 and the “Multiples (YK-312)” value was determined as 4.00. Moreover, in data set [2], the “Ratio relative to SM-102” value turned out to be 3.14. For the same compound, the “Cell survival rate (%)” value in data set [3] is on record as 70.99%.

For `CCCCCCCCC(CCCCCCCC)OC(=O)CCCCCCCN(CCCCCCCC(=O)OC(CCCCCCCC)CCCCCCCC)C[C@H](O)CN(CC)CCO` [YK-314], in data set [1], the “PDI (%)” value came to 24.6% and the “Particle size (nm)” value is on record as 235 nm. Moreover, in data set [2], the “Relative light unit (RLU)” value was found to be 547434 RLU, the “Multiples (YK-305)” value was 50.07, the “Multiples (YK-310)” value came out at 47.12 and the “Multiples (YK-312)” value amounted to 36.81. In data set [2], the “Ratio relative to SM-102” value was 0.34. Also, the “Cell survival rate (%)” value in data set [3] is reported as 67.88%.

`CCCCCCCCC(CCCCCCCC)OC(=O)CCCCCCCN(CCCCCCCC(=O)OC(CCCCCCCC)CCCCCCCC)C[C@H](O)CN(CCO)CCO` [YK-320, (S)-Bis(heptadecan-9-yl)-8,8′-((3-(bis(2-hydroxyethyl)amino)-2-hydroxypropyl)azanediyl)dicaprylate]: in data set [1], the “PDI (%)” value is 19.6% and the “Particle size (nm)” value amounted to 212 nm. Also, in data set [2], the “Relative light unit (RLU)” value was determined as 2702966 RLU, the “Multiples (YK-305)” value amounted to 10.14, the “Multiples (YK-310)” value was 9.54 and the “Multiples (YK-312)” value is on record as 7.45. Further, in data set [2], the “Multiples (YK-318)” value turned out to be 4.14, the “Multiples (YK-319)” value is given as 9.05 and the “Ratio relative to SM-102” value came to 1.69. Further, the “Cell survival rate (%)” value in data set [3] is given as 71.07%.

Take `CCCCCCC(CCCCCC)CCOC(=O)CCCCCN(CCCCCC(=O)OCCC(CCCCCC)CCCCCC)C[C@H](O)CN(C)CCO` [YK-306, (R)-bis(3-hexylnonyl)-6,6′-((2-hydroxy-3-((2-hydroxyethyl)(methyl)amino)propyl)azanediyl)dihexanoate]: in data set [1], the “PDI (%)” value worked out at 13.6% and the “Particle size (nm)” value is listed as 228 nm. In data set [2], the “Relative light unit (RLU)” value came out at 2197174 RLU, the “Multiples (YK-305)” value was determined as 12.47, the “Multiples (YK-310)” value is recorded as 11.14 and the “Multiples (YK-312)” value was 9.17. Moreover, in data set [2], the “Multiples (YK-318)” value was 5.09 and the “Multiples (YK-319)” value was 11.14. Besides, the “Cell survival rate (%)” value in data set [3] is recorded as 42.19%.

In the case of `CCCCCCCCC(CCCCCCCC)COC(=O)CCCCCN(CCCCCC(=O)OCC(CCCCCCCC)CCCCCCCC)C[C@H](O)CN(CCO)CCO` [YK-316, (S)-bis(2-octyldecyl)-6,6′-(((3-(bis(2-hydroxyethyl)amino)-2-hydroxypropyl)azanediyl))dihexanoate], in data set [1], the “PDI (%)” value is recorded as 17.5% and the “Particle size (nm)” value amounted to 188 nm. Besides, in data set [2], the “Relative light unit (RLU)” value turned out to be 4810210 RLU, the “Multiples (YK-305)” value worked out at 5.70, the “Multiples (YK-310)” value is listed as 5.36 and the “Multiples (YK-312)” value came out at 4.19. Besides, in data set [2], the “Multiples (YK-318)” value amounted to 2.33, the “Multiples (YK-319)” value is on record as 5.09 and the “Ratio relative to SM-102” value came out at 3.00. Besides, in data set [3], the “Cell survival rate (%)” value amounted to 70.53%.

Take `CCCCCCCCCCC(CCCCCCCCCC)CCCOC(=O)CCCN(CCCC(=O)OCCCC(CCCCCCCCCC)CCCCCCCCCC)C[C@H](O)CN(CC)CCO` [YK-315]: in data set [1], the “PDI (%)” value worked out at 34.9% and the “Particle size (nm)” value turned out to be 181 nm. Moreover, in data set [2], the “Relative light unit (RLU)” value came to 1587188 RLU, the “Multiples (YK-305)” value is reported as 17.27, the “Multiples (YK-310)” value came to 16.25 and the “Multiples (YK-312)” value turned out to be 12.69. Besides, in data set [2], the “Ratio relative to SM-102” value is listed as 0.99. Also, the “Cell survival rate (%)” value in data set [3] is recorded as 71.28%.

Consider `CCCCCCCCCCCOC(=O)CCCCCN(CCCCCC(=O)OCCCCCCCCCCC)C[C@H](O)CN(C)CCO` [YK-304, (R)-bis(undecyl)-6,6′-((2-hydroxy-3-((2-hydroxyethyl)(methyl)amino)propyl)azanediyl)dihexanoate], for which, in data set [1], the “PDI (%)” value amounted to 19.8% and the “Particle size (nm)” value was 149 nm. In data set [2], the “Relative light unit (RLU)” value is reported as 20686 RLU, the “Multiples (YK-305)” value came to 1324.99, the “Multiples (YK-310)” value was found to be 1247.08 and the “Multiples (YK-312)” value turned out to be 974.01. Further, in data set [2], the “Multiples (YK-318)” value amounted to 540.95 and the “Multiples (YK-319)” value came out at 1182.82. For the same compound, the “Cell survival rate (%)” value in data set [3] turned out to be 34.16%.

Consider `CCCCCCC(CCCCCC)CCOC(=O)CCCCCN(CCCCCC(=O)OCCC(CCCCCC)CCCCCC)C[C@H](O)CN(CCO)CCO` [YK-317, (S)-Bis(3-hexylnonyl)-6,6′-((3-(bis(2-hydroxyethyl)amino)-2-hydroxypropyl)azanediyl)dihexanoate], for which, in data set [1], the “PDI (%)” value is listed as 16.4% and the “Particle size (nm)” value was 255 nm. Besides, in data set [2], the “Relative light unit (RLU)” value was 3605054 RLU, the “Multiples (YK-305)” value came out at 7.60, the “Multiples (YK-310)” value is recorded as 7.16 and the “Multiples (YK-312)” value was determined as 5.59. Further, in data set [2], the “Multiples (YK-318)” value stood at 3.10, the “Multiples (YK-319)” value is recorded as 6.79 and the “Ratio relative to SM-102” value stood at 2.25. Besides, in data set [3], the “Cell survival rate (%)” value was determined as 59.18%.

As for `CCCCCCCCCCC(CCCCCCCCCC)CCCOC(=O)CCCN(CCCC(=O)OCCCC(CCCCCCCCCC)CCCCCCCCCC)C[C@H](O)CN(C)CCO` [YK-307], in data set [1], the “PDI (%)” value is on record as 32.2% and the “Particle size (nm)” value amounted to 210 nm. In data set [2], the “Relative light unit (RLU)” value worked out at 4557420 RLU, the “Multiples (YK-305)” value was 6.01, the “Multiples (YK-310)” value was 5.66 and the “Multiples (YK-312)” value was 4.42. Moreover, in data set [2], the “Multiples (YK-318)” value was 2.46 and the “Multiples (YK-319)” value amounted to 5.37. The “Cell survival rate (%)” value in data set [3] turned out to be 61.14%.

`CCCCCCCCCCCOC(=O)CCCCCN(CCCC(=O)OCCCC(CCCCCCCCCC)CCCCCCCCCC)C[C@H](O)CN(C)CCO` [YK-303, (R)-undecyl-6-(4-(4-decyltetradecyloxy)-4-oxobutyl)((2-hydroxy-3-((2-hydroxyethyl)(methyl)amino)propyl)amino)hexanoate]: in data set [2], the “Relative light unit (RLU)” value is on record as 626314 RLU, the “Multiples (YK-305)” value is 43.76, the “Multiples (YK-310)” value is 41.19 and the “Multiples (YK-312)” value was 32.17. In data set [2], the “Multiples (YK-318)” value amounted to 17.87 and the “Multiples (YK-319)” value amounted to 39.07. Also, the “Cell survival rate (%)” value in data set [3] was 82.18%. The “Cell survival rate (%)” value in data set [3] (listed as YK 303) came out at 63.32%.

Take `CCCCCCC(CCCCCC)CCOC(=O)CCCCCN(CCCCCC(=O)OCCC(CCCCCC)CCCCCC)C[C@H](O)CN(CC)CCO` [YK-311]: in data set [1], the “PDI (%)” value is reported as 31.1% and the “Particle size (nm)” value is given as 209 nm. Further, in data set [2], the “Relative light unit (RLU)” value is 1963636 RLU, the “Multiples (YK-305)” value was 13.96, the “Multiples (YK-310)” value is listed as 13.14 and the “Multiples (YK-312)” value is recorded as 10.26. In addition, the “Ratio relative to SM-102” value in data set [2] is 1.22. The “Cell survival rate (%)” value in data set [3] was 70.06%.
